From paper PMC8311653, “Design, Synthesis, In Vitro and In Vivo Characterization of Selective NKCC1 Inhibitors for the Treatment of Core Symptoms in Down Syndrome” (Journal of Medicinal Chemistry, 2021) come the findings set out here.

The target in series [1] is T1, NKCC1 (Homo sapiens, UniProt P55011).
T1 construct: host or cells: HEK293
T1 sequence (P55011 1-1212): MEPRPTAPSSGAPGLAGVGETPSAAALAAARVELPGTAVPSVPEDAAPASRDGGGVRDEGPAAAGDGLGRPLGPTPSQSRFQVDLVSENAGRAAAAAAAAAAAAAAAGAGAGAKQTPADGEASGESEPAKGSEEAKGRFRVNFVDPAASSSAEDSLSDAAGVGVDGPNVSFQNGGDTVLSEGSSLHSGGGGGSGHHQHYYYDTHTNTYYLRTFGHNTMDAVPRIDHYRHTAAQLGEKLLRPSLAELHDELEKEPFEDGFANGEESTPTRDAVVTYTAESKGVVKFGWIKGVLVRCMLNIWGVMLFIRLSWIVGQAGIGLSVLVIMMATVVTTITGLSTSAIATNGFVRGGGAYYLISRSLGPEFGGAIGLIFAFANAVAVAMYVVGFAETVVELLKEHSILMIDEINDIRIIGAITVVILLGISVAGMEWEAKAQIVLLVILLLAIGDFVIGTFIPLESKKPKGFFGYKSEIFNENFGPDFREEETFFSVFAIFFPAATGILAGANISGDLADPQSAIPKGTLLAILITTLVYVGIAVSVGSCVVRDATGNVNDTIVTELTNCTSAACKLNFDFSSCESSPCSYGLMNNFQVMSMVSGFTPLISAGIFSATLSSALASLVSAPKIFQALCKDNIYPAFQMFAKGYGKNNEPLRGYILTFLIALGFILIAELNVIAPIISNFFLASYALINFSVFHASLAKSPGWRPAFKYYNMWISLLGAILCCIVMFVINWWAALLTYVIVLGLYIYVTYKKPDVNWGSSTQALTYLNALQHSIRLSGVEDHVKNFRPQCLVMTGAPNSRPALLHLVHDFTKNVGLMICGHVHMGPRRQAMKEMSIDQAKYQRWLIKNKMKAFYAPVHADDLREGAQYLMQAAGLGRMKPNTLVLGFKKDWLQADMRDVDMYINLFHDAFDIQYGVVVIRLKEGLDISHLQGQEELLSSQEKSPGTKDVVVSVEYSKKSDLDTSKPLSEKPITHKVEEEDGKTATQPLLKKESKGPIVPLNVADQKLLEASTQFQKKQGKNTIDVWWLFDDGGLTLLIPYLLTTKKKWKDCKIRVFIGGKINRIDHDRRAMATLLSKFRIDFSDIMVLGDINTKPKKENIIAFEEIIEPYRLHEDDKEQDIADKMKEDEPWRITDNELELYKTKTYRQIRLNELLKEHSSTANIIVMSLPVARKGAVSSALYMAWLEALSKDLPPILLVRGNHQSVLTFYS
The series is described as follows: Cl- influx assay in NKCC1-transfected HEK293 cells. The settings on record: for inhibition at 10 µM: HEK293, read-out: Inhibition 10 μM Cl- influx (%); for inhibition at 100 µM: HEK293, read-out: Inhibition 100 μM Cl- influx (%). Format: cell-based. As for the experimental part: HEK293 cells were cultured in Dulbecco’s modified Eagle’s medium (DMEM) supplemented with 10% fetal bovine serum, 1% L-glutamine, 100 U/mL penicillin, and 100 μg/mL streptomycin and maintained at 37 °C in a 5% CO2 humidified atmosphere. To assess NKCC1 and NKCC2 activity (Cl^– influx assay), 3 million HEK cells were plated in a 10 cm cell-culture dish and transfected with a transfection mixture comprising 5 mL of DMEM, 4 mL of Opti-MEM, 8 μg of DNA plasmid coding for NKCC1 (PRK-NKCC1 obtained from Medical Research Council and the University of Dundee), NKCC2 (OriGene plasmid #RC216145) subcloned in PRK5 plasmid, or mock control (empty vector), together with 8 μg of a plasmid coding for the Cl^–-sensitive variant of the membrane-targeted fluorescent protein YFP, mbYFPQS (Addgene plasmid #80742),[53] and 32 μL of Lipofectamin 2000. To assess KCC2 activity (Tl influx assay), cells were transfected with 8 μg of KCC2[54] subcloned in the PRK5 plasmid or mock control (empty vector) and 16 μL of Lipofectamin 2000. After 4 h, the cells were collected and plated in 96-well black-walled, clear-bottomed plates at a density of 2.5 × 10^4. After 48 h, cells were used for the Cl^– or Tl influx assays. All reagents were purchased from Life Technologies, unless otherwise specified.
Transfected cells were treated with 10 μM or 100 μM bumetanide (as positive controls), DMSO (as the negative control), or with each of our compounds in 100 μL/well of a Cl^–-free hypotonic solution (67.5 mM Na^+ gluconate, 2.5 mM K^+ gluconate, 15 mM HEPES pH 7.4, 50 mM glucose, 1 mM Na2HPO4, 1 mM NaH2PO4, 1 mM MgSO4, and 1 mM CaSO4). After 30 min of incubation, plates were loaded into a Victor 3V (PerkinElmer) multiplate reader equipped with an automatic liquid injector system, and fluorescence of Cl^–-sensitive mbYFPQS was recorded with excitation at 485 nm and emission at 535 nm. For each well, fluorescence was first recorded for 20 s of the baseline and for 60 s after delivery of a NaCl concentrated solution (74 mM final concentration in the assay well). Fluorescence of Cl^–-sensitive mbYFPQS is inversely correlated to the intracellular Cl^– concentration;[53] therefore, chloride influx into the cells determined a decrease in mbYFPQS fluorescence. To represent the fluorescent traces in time, we normalized the fluorescence value for each time point to the average of the fluorescence value of the first 20 s of the baseline (ΔF/F0). To quantify the average effects as represented by the bar plots, we expressed the decrease in fluorescence upon NaCl application as the average of the last 10 s of ΔF/F0 normalized traces. Moreover, for each experiment, to account for the contribution of Cl^– changes that were dependent on transporters/exchangers other than NKCC1 or NKCC2, we subtracted the value of the last 10 s of ΔF/F0 normalized traces obtained from mock-transfected cells (either control or treated) from the respective ΔF/F0 value obtained from the cells transfected with NKCC1 or NKCC2. We then presented in the figures all the data as a percentage of the fluorescence decrease versus the value of the control DMSO.

Series [2] concerns WT and Ts65Dn mice. In words: Diuresis analysis in metabolic cages. The settings on record: 0.6 mg kg-1 ip; adult WT and Ts65Dn mice; vs vehicle-treated mice. As for the experimental part:
A veterinarian was employed to maintain the health and comfort of the animals. Mice were housed in filtered cages in a temperature-controlled room with a 12:12 h dark/light cycle and with ad libitum access to water and food. All efforts were made to minimize animal suffering and use the lowest possible number of animals required to produce statistical relevant results, according to the “3Rs concept”. In this study, we used Ts65Dn mice maintained in their original genetic background[57] by crossing (more than 40 times) Ts65Dn female to C57BL/6JEi × C3SnHeSnJ (B6EiC3) F1 males (Jackson Laboratories). Ts65Dn mice were genotyped by PCR as previously described.[58] Only males were used for behavioral experiments. Ts65Dn and controls were randomly assigned to vehicle groups (2% DMSO in saline), bumetanide (Sigma, 0.6 mg kg^–1 body weight), or 40 (0.6 mg kg^–1 body weight) and treated daily for ∼21 days by intraperitoneal injection (i.p.). On the day of behavioral testing, injection was performed 1 h before the task began.

By inhibition is commonly meant the relative decrease from the control value, in per cent. As to `CN(C)S(=O)(=O)c1cc(C(=O)O)ccc1NCCCCCCCC(F)(F)F` [Compound 1, 3-(-N,N-Dimethylsulfamoyl)-4-(8,8,8-trifluorooctylamino)benzoic Acid], in series [1], the inhibition at 10 µM stood at 37.1 ± 5% and the inhibition at 100 µM was found to be 88.5 ± 1.7%.
As to `CN(C)S(=O)(=O)c1cc(C(=O)O)c(O)cc1NCCCCCCCC(F)(F)F` [Compound 40, 5-(N,N-Dimethylsulfamoyl)-2-hydroxy-4-((8,8,8-trifluorooctyl)amino)benzoic Acid], in series [2], the “diuretic effect (urine volume collected for 2 h)” value was “did not induce any significant diuresis”.
As to `CCCCNc1cc(C(=O)O)cc(S(N)(=O)=O)c1Oc1ccccc1` [bumetanide, reference compound], the “diuretic effect (urine volume collected for 2 h)” value in series [2] is given as “significantly increased the urine volume”. In series [1], the inhibition at 10 µM was 58.8 ± 5.6% and the inhibition at 100 µM was found to be 71.7 ± 7%.
